# From patent US20090247768A1, “CRYSTALLINE SULFONAMIDE-CONTAINING INDOLE COMPOUND AND PROCESS FOR PREPARING THE SAME” (priority 2003, published 2009)
# Experiment: Solid stability against light (impurity content by HPLC after storage)
# Format: physicochemical
# Conditions: for Impurity content (%): HPLC; for change in impurity content before and after storage: 25° C./1000 Lx, 1 month and 3 months
# Description: Column: ODS column (inner diameter=4.6 mm, column length=250 mm, particle size=5 μm) Column temperature: 30° C. Detection wavenumber: 282 nm Flow rate: 1.0 mL/min Mobile phase: Solution A: CH3CN/H2O/70% HClO4=100/900/1 (v/v/v) Solution B: CH3CN/H2O/70% HClO4=900/100/1 (v/v/v)
# All of the peaks and peak areas were calculated from the chromatogram, and the impurity amount for each peak (except for the peak of N-(3-cyano-4-methyl-1H-indol-7-yl)-3-cyanobenzenesulfonamide) was calculated according to the following formula.
# Individual impurity content (%)=(individual impurity peak area)/(total of all peak areas)×100
# Peaks with impurity contents of 0.05% or greater were recorded as impurity peaks, and their total was recorded as the impurity content of the crystals.
# Impurity content (%)=Total of individual impurity contents (%)
# The crystals obtained in Example 1C, Example 1E and Example 1F were stored for 1 month and 3 months at 25° C./1000 Lx (LT-120D3J Light Stability Tester by Nagano Science, Japan), and then the impurity contents were measured by HPLC.
# HPLC was conducted under the same conditions as in Test Example 1, except that elution was performed with the gradient program shown in Table 14.
# The impurity content of the crystals was determined by the same method as described for Test Example 1. […] That is, the crystals obtained in Examples 1F and 1C (Form A and Form C) clearly had higher stability against light.
# [1] = solid crystals stored at 25° C./1000 Lx/1 month
# [2] = solid crystals stored at 25° C./1000 Lx/3 months
smiles,measurement,setting,value
"Cc1ccc(NS(=O)(=O)c2cccc(C#N)c2)c2[nH]cc(C#N)c12 [Example 1E, N-(3-cyano-4-methyl-1H-indol-7-yl)-3-cyanobenzenesulfonamide]",Impurity content (%),[1],0.83%
same,Impurity content (%),[2],4.44%
same,change in impurity content before and after storage,solid crystals,increased
same,Impurity content (%),"solid crystals, before storage",0.50%
"Cc1ccc(NS(=O)(=O)c2cccc(C#N)c2)c2[nH]cc(C#N)c12 [Example 1F, N-(3-cyano-4-methyl-1H-indol-7-yl)-3-cyanobenzenesulfonamide]",Impurity content (%),[1],0.41%
same,Impurity content (%),[2],0.51%
same,change in impurity content before and after storage,solid crystals,no change
same,Impurity content (%),"solid crystals, before storage",0.42%
"Cc1ccc(NS(=O)(=O)c2cccc(C#N)c2)c2[nH]cc(C#N)c12 [Example 1C, N-(3-cyano-4-methyl-1H-indol-7-yl)-3-cyanobenzenesulfonamide]",Impurity content (%),[1],0.51%
same,Impurity content (%),[2],0.51%
same,change in impurity content before and after storage,solid crystals,no change
same,Impurity content (%),"solid crystals, before storage",0.51%
